We go through 34 sequences from the supplement of paper PMC11208160.
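Note: IS621 bridge recombinase in Escherichia coli cells against a fixed T5 target plasmid.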

This series in a line: recombinant UMI read abundance after kanamycin selection (control-corrected) (log10(CPM+1)); higher = more efficient recombination; extreme values may be limits of the assay; sequences stand for … in AGTGCAGAGAAAATCGGCCAGTTTTCTCTGCCTGCAGTCCGCATGCCGTGGGACCCCTTGGGTTCTAACCTGTTGCCTAGATTTATGCAGCGGACTGCCTTTCTCCCAAAGTGATAAACCGG…AGGTTGGTTTCACT; site = the 11-nt donor. In short, it runs like this:
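Pooled Escherichia coli screen of donor and donor-binding-loop pairs for the IS621 bridge recombinase. Each pair sits with a 12-nt UMI on a plasmid carrying a promoterless kanamycin gene. The library was co-electroporated with a target plasmid encoding a fixed target and T7-inducible recombinase, then plated with IPTG (0.07 mM) plus kanamycin, or unselected, each in two replicates. Recombinant UMIs were PCR-amplified across the donor–target junction and sequenced. Counts became CPM, averaged over replicates, scaled by control-derived factors and reported as log10(CPM+1).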
With “TCGTTCACATGGACCGGTTTTCCCGGTAATCCGTATTTGGA (site TCGTTCACTTC)”, the “recombinant UMI read abundance (log10)” value was found to be 0.0102.
For “TCGTTCTCATGGACCGGTTTTCCCGGTAATCCGTATTTGGG (site TCGTTCTCTCC)” the value was 0.00264; for “TCTAAATCATGGACCGGTTTTCCCGGTAATCCGTATTTGTT (site TCTAAATCTAA)”, 0; for “TCTAAGACATGGACCGGTTTTCCCGGTAATCCGTATTTGTG (site TCTAAGACTCA)”, 0.00606.
As to “TCTAAGGCATGGACCGGTTTTCCCGGTAATCCGTATTTGGT (site TCTAAGGCTAC)”, the “recombinant UMI read abundance (log10)” value was determined as 0.43.
With “TCTACACCATGGACCGGTTTTCCCGGTAATCCGTATTTGGT (site TCTACACCTAC)”, the “recombinant UMI read abundance (log10)” value was 0.00817.
On to “TCTGAAACATGGACCGGTTTTCCCGGTAATCCGTATTTGTG (site TCTGAAACTCA)”, for which the “recombinant UMI read abundance (log10)” value is 0.00806.
For the sequence “TCTGAGACATGGACCGGTTTTCCCGGTAATCCGTATTTGCC (site TCTGAGACTGG)”, the “recombinant UMI read abundance (log10)” value was 0.0914.
Turning to “TCTGAGACATGGACCGGTTTTCCCGGTAATCCGTATTTGCG (site TCAGAGACTCG)”, the “recombinant UMI read abundance (log10)” value stood at 0.
As to “TCTGAGACATGGACCGGTTTTCCCGGTAATCCGTATTTGCG (site TCCGAGACTCG)”, the “recombinant UMI read abundance (log10)” value worked out at 0.022.
With “TCTGAGACATGGACCGGTTTTCCCGGTAATCCGTATTTGCG (site TCGGAGACTCG)”, the “recombinant UMI read abundance (log10)” value was found to be 0.285.
On to “TCTGAGACATGGACCGGTTTTCCCGGTAATCCGTATTTGCG (site TCTGAGACTCG)”, for which the “recombinant UMI read abundance (log10)” value amounted to 0.476.
For “TCTGCAGCATGGACCGGTTTTCCCGGTAATCCGTATTTGTA (site TCTGCAGCTTA)” the value was 0; for “TCTGCCCCATGGACCGGTTTTCCCGGTAATCCGTATTTGGG (site TCTGCCCCTCC)”, 0.00716; for “TCTGCCGCATGGACCGGTTTTCCCGGTAATCCGTATTTGAG (site TCTGCCGCTCT)”, 0.0275.
Take “TCTGGATCATGGACCGGTTTTCCCGGTAATCCGTATTTGCT (site TCTGGATCTAG)”: the “recombinant UMI read abundance (log10)” value is 0.
For the sequence “TCTGGGTCATGGACCGGTTTTCCCGGTAATCCGTATTTGTT (site TCTGGGTCTAA)”, the “recombinant UMI read abundance (log10)” value worked out at 0.167.
In the case of “TCTGGTCCATGGACCGGTTTTCCCGGTAATCCGTATTTGAG (site TCTGGTCCTCT)”, the “recombinant UMI read abundance (log10)” value worked out at 0.00736.
As for “TCTGTCGCATGGACCGGTTTTCCCGGTAATCCGTATTTGGC (site TCTGTCGCTGC)”, the “recombinant UMI read abundance (log10)” value was 0.00952.
For “TCTGTGGCATGGACCGGTTTTCCCGGTAATCCGTATTTGAC (site TCTGTGGCTGT)”, the “recombinant UMI read abundance (log10)” value is 0.
Consider “TCTTCGACATGGACCGGTTTTCCCGGTAATCCGTATTTGAG (site TCTTCGACTCT)”, for which the “recombinant UMI read abundance (log10)” value worked out at 0.0148.
As for “TCTTCTTCATGGACCGGTTTTCCCGGTAATCCGTATTTGAA (site TCTTCTTCTTT)”, the “recombinant UMI read abundance (log10)” value turned out to be 0.00225.
In the case of “TGAAAGGCATGGACCGGTTTTCCCGGTAATCCGTATTTGCT (site AGAAAGGCTAG)”, the “recombinant UMI read abundance (log10)” value turned out to be 0.855.
With “TGAAAGGCATGGACCGGTTTTCCCGGTAATCCGTATTTGCT (site CGAAAGGCTAG)”, the “recombinant UMI read abundance (log10)” value was 0.708.
“TGAAAGGCATGGACCGGTTTTCCCGGTAATCCGTATTTGCT (site GGAAAGGCTAG)”: the “recombinant UMI read abundance (log10)” value is 0.
In the case of “TGAAAGGCATGGACCGGTTTTCCCGGTAATCCGTATTTGCT (site TGAAAGGCTAG)”, the “recombinant UMI read abundance (log10)” value came to 2.34.
As for “TGAAGAACATGGACCGGTTTTCCCGGTAATCCGTATTTGGC (site TGAAGAACTGC)”, the “recombinant UMI read abundance (log10)” value is 2.29.
As for “TGAAGTCCATGGACCGGTTTTCCCGGTAATCCGTATTTGTA (site TAAAGTCCTTA)”, the “recombinant UMI read abundance (log10)” value came to 0.00928.
For the sequence “TGAAGTCCATGGACCGGTTTTCCCGGTAATCCGTATTTGTA (site TCAAGTCCTTA)”, the “recombinant UMI read abundance (log10)” value amounted to 1.44.
For “TGAAGTCCATGGACCGGTTTTCCCGGTAATCCGTATTTGTA (site TGAAGTCCTTA)” the value was 0.591; for “TGAAGTCCATGGACCGGTTTTCCCGGTAATCCGTATTTGTA (site TTAAGTCCTTA)”, 0.888.
With “TGAATACCATGGACCGGTTTTCCCGGTAATCCGTATTTGTC (site TGAATACCTGA)”, the “recombinant UMI read abundance (log10)” value turned out to be 0.
Take “TGAATTTCATGGACCGGTTTTCCCGGTAATCCGTATTTGAG (site TGAATTTCTCT)”: the “recombinant UMI read abundance (log10)” value came out at 0.492.
With “TGACCATCATGGACCGGTTTTCCCGGTAATCCGTATTTGCT (site CGATCATCTAG)”, the “recombinant UMI read abundance (log10)” value amounted to 0.
